Columns and labels:
HeLa = assay: Proliferation assay (crystal violet), HeLa; type: cell-based; settings: Homo sapiens, HeLa, 96 h, HeLa cells; 4 days incubation; crystal violet staining; read-out: IC50 inhibition of proliferation, HeLa
In short: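 Crystal violet proliferation readout, 4-day compound incubation, 0.001–10 μM, final DMSO 0.5%. Zero-point plate stained at time of dosing set as 0%, untreated control as 100%; IC50 via 4-parameter fit.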

[1] = tested on: human cervical tumor cell line HeLa (ATCC CCL-2); assay: SAC-Formation - Nocodazole-Induced Assay; type: cell-based; settings: Homo sapiens, HeLa, 24 h, HeLa cells, nocodazole 0.1 μg/ml together with test compound, decrease of mitotic cells (phospho-histone H3 Ser10)
In short: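 Loss of phospho-histone H3 Ser10-positive cells, counted against Hoechst-stained nuclei by high-content imaging, marked mitotic breakthrough. Compounds (0.005–20 μM, 0.5% DMSO) were co-dosed with 0.1 μg/ml nocodazole onto HeLa cells for 24 h at 37 °C. Curves were fitted with a four-parameter Hill equation.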

Structure (SMILES) | IC50 (HeLa) | IC50 [1]
CNS(=O)(=O)c1ccc(NC(=O)c2c(C)nsc2Nc2cncc(C(F)(F)F)n2)cc1 [Example 211, 3-methyl-N-[4-(methylsulfamoyl)phenyl]-5-{[6-(trifluoromethyl)pyrazin-2-yl]amino}-1,2-thiazole-4-carboxamide] | 9.9 µM | 96 nM
Cc1nsc(Nc2cc(C#N)ccn2)c1C(=O)Nc1ccc(NC(=O)OC(C)(C)C)cc1 [Example 177, tert-butyl {4-[({5-[(4-cyanopyridin-2-yl)amino]-3-methyl-1,2-thiazol-4-yl}carbonyl)amino]phenyl}carbamate] | > 10 µM | 3900 nM
Cc1nsc(Nc2ccc(C#N)cn2)c1C(=O)Nc1ccc(F)c(C(N)=O)c1 [Example 203, N-(3-carbamoyl-4-fluorophenyl)-5-[(5-cyanopyridin-2-yl)amino]-3-methyl-1,2-thiazole-4-carboxamide] | > 10 µM | 1300 nM
Cc1nsc(Nc2cnc3ccccc3n2)c1C(=O)Nc1ccc(F)c(C(N)=O)c1 [Example 202, N-(3-carbamoyl-4-fluorophenyl)-3-methyl-5-(quinoxalin-2-ylamino)-1,2-thiazole-4-carboxamide] | > 10 µM | 220 nM
Cc1nsc(Nc2cnc3ccccc3n2)c1C(=O)Nc1ccccc1S(C)(=O)=O [Example 188, 3-methyl-N-[2-(methylsulfonyl)phenyl]-5-(quinoxalin-2-ylamino)-1,2-thiazole-4-carboxamide] | > 10 µM | 230 nM
Cc1nsc(Nc2cncc(C(F)(F)F)n2)c1C(=O)Nc1ccc(OC2CCN(C(C)C)CC2)nc1 [Example 218, N-{6-[(1-isopropylpiperidin-4-yl)oxy]pyridin-3-yl}-3-methyl-5-{[6-(trifluoromethyl)pyrazin-2-yl]amino}-1,2-thiazole-4-carboxamide] | 9.9 µM | 380 nM
CC(=O)Nc1cc(NC(=O)c2c(C)nsc2Nc2cnccn2)ccc1F [Example 205, N-(3-acetamido-4-fluorophenyl)-3-methyl-5-(pyrazin-2-ylamino)-1,2-thiazole-4-carboxamide] | > 10 µM | 6000 nM
Cc1nsc(Nc2cnc3ccccc3n2)c1C(=O)Nc1ccc(OCCC(=O)OC(C)(C)C)nc1 [Example 198, tert-butyl 3-{[5-({[3-methyl-5-(quinoxalin-2-ylamino)-1,2-thiazol-4-yl]carbonyl}amino)pyridin-2-yl]oxy}propanoate] | 6.7 µM | 1000 nM
Cc1nsc(Nc2cnc3ccccc3n2)c1C(=O)Nc1ccc(OC2CCNCC2)nc1 [Example 19, 3-Methyl-N-[6-(piperidin-4-yloxy)pyridin-3-yl]-5-(quinoxalin-2-ylamino)-1,2-thiazole-4-carboxamide] | 3.5 µM | 320 nM
Cc1nsc(Nc2cnc3ccccc3n2)c1C(=O)Nc1cccc(NC(=O)C(C)(C)C)c1 [Example 186, N-{3-[(2,2-dimethylpropanoyl)amino]phenyl}-3-methyl-5-(quinoxalin-2-ylamino)-1,2-thiazole-4-carboxamide] | 6.5 µM | 630 nM
Cc1nsc(Nc2cnc3ccccc3n2)c1C(=O)Nc1ccc(C(N)=O)c(F)c1 [Example 201, N-(4-carbamoyl-3-fluorophenyl)-3-methyl-5-(quinoxalin-2-ylamino)-1,2-thiazole-4-carboxamide] | > 10 µM | 520 nM
Cc1nsc(Nc2cnc3ccccc3n2)c1C(=O)Nc1ccc(NCC2CCN(C(=O)OC(C)(C)C)CC2)nc1 [Example 238, tert-butyl 4-({[5-({[3-methyl-5-(quinoxalin-2-ylamino)-1,2-thiazol-4-yl]carbonyl}amino)pyridin-2-yl]amino}methyl)piperidine-1-carboxylate] | 8.1 µM | 3500 nM
Cc1nsc(Nc2cncc(C(F)(F)F)n2)c1C(=O)Nc1ccc(C(=O)NC2CCN(CC(F)F)CC2)cc1 [Example 225, N-N-(4-{[1-(2,2-difluoroethyl)piperidin-4-yl]carbamoyl}phenyl)-3-methyl-5-{[6-(trifluoromethyl)pyrazin-2-yl]amino}-1,2-thiazole-4-carboxamide] | 8.3 µM | 310 nM
Cc1nsc(Nc2cncc(C(F)(F)F)n2)c1C(=O)Nc1ccc(C(=O)NCCN2CCCC(F)(F)C2)cc1 [Example 214, N-(4-{[2-(3,3-difluoropiperidin-1-yl)ethyl]carbamoyl}phenyl)-3-methyl-5-{[6-(trifluoromethyl)pyrazin-2-yl]amino}-1,2-thiazole-4-carboxamide] | 4.6 µM | 320 nM
Cc1nsc(Nc2cnc3ccccc3n2)c1C(=O)Nc1ccc(NCCC(=O)OC(C)(C)C)nc1 [Example 236, tert-butyl N-[5-({[3-methyl-5-(quinoxalin-2-ylamino)-1,2-thiazol-4-yl]carbonyl}amino)pyridin-2-yl]-beta-alaninate] | 4.1 µM | 3000 nM
CCN(CC)CCNC(=O)c1cccc(NC(=O)c2c(C)nsc2Nc2cc(C#N)ccn2)c1 [Example 174, 5-[(4-cyanopyridin-2-yl)amino]-N-(3-{[2-(diethylamino)ethyl]carbamoyl}phenyl)-3-methyl-1,2-thiazole-4-carboxamide] | > 10 µM | 5800 nM
Cc1nsc(Nc2cc(C#N)ccn2)c1C(=O)Nc1ccc(OCCC(=O)OC(C)(C)C)nc1 [Example 200, tert-butyl 3-({5-[({5-[(4-cyanopyridin-2-yl)amino]-3-methyl-1,2-thiazol-4-yl}carbonyl)amino]pyridin-2-yl}oxy)propanoate] | > 10 µM | 460 nM
CCN(CC)CCNC(=O)c1cccc(NC(=O)c2c(C)nsc2Nc2cnccn2)c1 [Example 247, N-(3-{[2-(diethylamino)ethyl]carbamoyl}phenyl)-3-methyl-5-(pyrazin-2-ylamino)-1,2-thiazole-4-carboxamide] | > 10 µM | 1200 nM

Compounds with a lower IC50 (HeLa), results first:

IC50 (HeLa) | IC50 [1] | Structure (SMILES)
2.7 µM | 470 nM | Cc1nsc(Nc2cncc(C(F)(F)F)n2)c1C(=O)Nc1ccc(C(=O)OC(C)(C)C)cc1 [Example 193, tert-butyl tert-butyl 4-{[(3-methyl-5-{[6-(trifluoromethyl)pyrazin-2-yl]amino}-1,2-thiazol-4-yl)carbonyl]amino}benzoate]
2.5 µM | 92 nM | Cc1nsc(Nc2cnc(C(F)(F)F)cn2)c1C(=O)Nc1ccc(OCCN)c(F)c1 [Example 221, 3-N-[4-(2-aminoethoxy)-3-fluorophenyl]-3-methyl-5-{[5-(trifluoromethyl)pyrazin-2-yl]amino}-1,2-thiazole-4-carboxamide]
2.5 µM | 230 nM | Cc1nsc(Nc2cncc(C(F)(F)F)n2)c1C(=O)Nc1cccc(S(C)(=O)=O)c1 [Example 194, 3-methyl-N-[3-(methylsulfonyl)phenyl]-5-{[6-(trifluoromethyl)pyrazin-2-yl]amino}-1,2-thiazole-4-carboxamide]
2.1 µM | 530 nM | COc1ccc(NC(=O)c2c(C)nsc2Nc2cnc3ccccc3n2)c(CC#N)n1 [Example 235, N-[2-(cyanomethyl)-6-methoxypyridin-3-yl]-3-methyl-5-(quinoxalin-2-ylamino)-1,2-thiazole-4-carboxamide]
1.9 µM | 3200 nM | CNS(=O)(=O)c1ccc(NC(=O)c2c(C)nsc2Nc2cc(C#N)ccn2)cc1 [Example 210, 5-[(4-cyanopyridin-2-yl)amino]-3-methyl-N-[4-(methylsulfamoyl)phenyl]-1,2-thiazole-4-carboxamide]
1.6 µM | 59 nM | Cc1nsc(Nc2cncc(C(F)(F)F)n2)c1C(=O)Nc1ccc(OCCNC(=O)OC(C)(C)C)nc1 [Example 191, tert-butyl {2-[(5-{[(3-methyl-5-{[6-(trifluoromethyl)pyrazin-2-yl]amino}-1,2-thiazol-4-yl)carbonyl]amino}pyridin-2-yl)oxy]ethyl}carbamate]
1.5 µM | 53 nM | Cc1nsc(Nc2cnc3ccccc3n2)c1C(=O)Nc1ccc(OC2CCN(CC(F)F)CC2)nc1 [Example 20, N-(6-{[1-(2,2-difluoroethyl)piperidin-4-yl]oxy}pyridin-3-yl)-3-methyl-5-(quinoxalin-2-ylamino)-1,2-thiazole-4-carboxamide]
1.2 µM | 44 nM | Cc1nsc(Nc2cnc3ccccc3n2)c1C(=O)Nc1ccc(OC2CCN(C(=O)OC(C)(C)C)CC2)nc1 [Example 18, tert-Butyl 4-{[5-({[3-methyl-5-(quinoxalin-2-ylamino)-1,2-thiazol-4-yl]carbonyl}-amino)pyridin-2-yl]oxy}piperidine-1-carboxylate]
0.76 µM | 180 nM | Cc1nsc(Nc2cncc(C(F)(F)F)n2)c1C(=O)Nc1ccc(OC2CCN(CCF)CC2)c(F)c1 [Example 223, N-(3-fluoro-4-{[1-(2-fluoroethyl)piperidin-4-yl]oxy}phenyl)-3-methyl-5-{[6-(trifluoromethyl)pyrazin-2-yl]amino}-1,2-thiazole-4-carboxamide]
0.75 µM | 130 nM | Cc1nsc(Nc2ccc(C#N)cn2)c1C(=O)Nc1cccc(C(=O)OC(C)(C)C)c1 [Example 240, tert-butyl 3-[({5-[(5-cyanopyridin-2-yl)amino]-3-methyl-1,2-thiazol-4-yl}carbonyl)amino]benzoate]
0.52 µM | 140 nM | Cc1nsc(Nc2cncc(C(F)(F)F)n2)c1C(=O)Nc1ccc(OCCNC(=O)OC(C)(C)C)c(F)c1 [Example 216, tert-butyl [2-(2-fluoro-4-{[(3-methyl-5-{[6-(trifluoromethyl)pyrazin-2-yl]amino}-1,2-thiazol-4-yl)carbonyl]amino}phenoxy)ethyl]carbamate]

From US20170334899A1, “AMINO-SUBSTITUTED ISOTHIAZOLES” (Bayer Pharma Aktiengesellschaft, priority 2014, published 2017)
